In assay [1] the test system is white ears. Nature of the assay: Trial of the combination Chlorantraniliprole+Novaluron+Bifenthrin on white ears in paddy. The format is in vivo. To be noted: solo. The procedure:
Trials were conducted to test the efficacy of the combination of Chlorantraniliprole+Novaluron+Bifenthrin on white ears in paddy: […]

Assay [2] has as its system Fruit and shoot borer. Nature of the assay: Trial of the combination Chlorantraniliprole+Novaluron+Bifenthrin on Fruit and shoot borer in paddy. The assay is classed as in vivo. To be noted: solo. The procedure:
Trials were conducted to test the efficacy of the combination of Chlorantraniliprole+Novaluron+Bifenthrin on Fruit and shoot borer in paddy: […]

Molecules are shown by their SMILES.

On to `CNC(=O)c1cc(Cl)cc(C)c1NC(=O)c1cc(Br)nn1-c1ncccc1Cl` [Chlorantraniliprole, 3-bromo-4′-chloro-1-(3-chloro-2-pyridyl)-2′-methyl-6′-(methylcarbamoyl)pyrazole-5-carboxanilide], for which the “Percent control Fruit and shoot borer” value in assay [1] (3 DAA, dose 30 gm ai/ha) is given as 5%; in assay [1] (7 DAA, dose 30 gm ai/ha) it was 6%; in assay [1] (10 DAA, dose 30 gm ai/ha) it was 5.9%; in assay [1] (14 DAA, dose 30 gm ai/ha), 4.9%; in assay [2] (3 DAA, dose 30 gm ai/ha) it was 79.3%; in assay [2] (7 DAA, dose 30 gm ai/ha), 90%. The “Percent control Fruit and shoot borer” value in assay [2] (10 DAA, dose 30 gm ai/ha) is 88.3%; in assay [2] (14 DAA, dose 30 gm ai/ha), 78.4%.
Turning to `O=C(NC(=O)c1c(F)cccc1F)Nc1ccc(OC(F)(F)C(F)OC(F)(F)F)c(Cl)c1` (stereo not drawn) [Novaluron], the “Percent control Fruit and shoot borer” value in assay [1] (3 DAA, dose 100 gm ai/ha) amounted to 5%; in assay [1] (7 DAA, dose 100 gm ai/ha), 6%; in assay [1] (10 DAA, dose 100 gm ai/ha) it was 5.9%; in assay [1] (14 DAA, dose 100 gm ai/ha), 4.9%; in assay [2] (3 DAA, dose 100 gm ai/ha), 64.3%; in assay [2] (7 DAA, dose 100 gm ai/ha), 75%. For the same compound, the “Percent control Fruit and shoot borer” value amounted to 68.3% in assay [2] (10 DAA, dose 100 gm ai/ha) and 64.3% in assay [2] (14 DAA, dose 100 gm ai/ha).
For the compound `Cc1c(COC(=O)[C@@H]2[C@H](/C=C(\Cl)C(F)(F)F)C2(C)C)cccc1-c1ccccc1` (racemic) [Bifenthrin], the “Percent control Fruit and shoot borer” value in assay [1] (3 DAA, dose 60 gm ai/ha) is 80%; in assay [1] (7 DAA, dose 60 gm ai/ha) it was 79%; in assay [1] (10 DAA, dose 60 gm ai/ha), 55%; in assay [1] (14 DAA, dose 60 gm ai/ha), 38%; in assay [2] (3 DAA, dose 60 gm ai/ha), 54.3%; in assay [2] (7 DAA, dose 60 gm ai/ha), 71%. Moreover, the “Percent control Fruit and shoot borer” value in assay [2] (10 DAA, dose 60 gm ai/ha) stood at 64.3%; in assay [2] (14 DAA, dose 60 gm ai/ha), 58.3%.

Values taken from patent US12161117B2, “Agrochemical combinations” (UPL LTD, priority 2018, dated 2024).
